Experimental data: patent US10647680B2, “Urea compound, preparation method therefor and medical use thereof” (Ancureall Pharmaceutical (Shanghai) Co., Ltd., priority 2016, dated 2020)

What was measured:
CYP2C8 = target: T1, CYP2C8 (Homo sapiens, UniProt P10632); assay: P450 enzyme inhibition, CYP2C8; type: in vitro ADME; conditions: human liver microsomes
T1 construct: human liver microsomes (BD Gentest) (0.5 mg/mL); tissue BD Gentest; host or cells: human liver microsomes
T1 sequence (P10632 1-490): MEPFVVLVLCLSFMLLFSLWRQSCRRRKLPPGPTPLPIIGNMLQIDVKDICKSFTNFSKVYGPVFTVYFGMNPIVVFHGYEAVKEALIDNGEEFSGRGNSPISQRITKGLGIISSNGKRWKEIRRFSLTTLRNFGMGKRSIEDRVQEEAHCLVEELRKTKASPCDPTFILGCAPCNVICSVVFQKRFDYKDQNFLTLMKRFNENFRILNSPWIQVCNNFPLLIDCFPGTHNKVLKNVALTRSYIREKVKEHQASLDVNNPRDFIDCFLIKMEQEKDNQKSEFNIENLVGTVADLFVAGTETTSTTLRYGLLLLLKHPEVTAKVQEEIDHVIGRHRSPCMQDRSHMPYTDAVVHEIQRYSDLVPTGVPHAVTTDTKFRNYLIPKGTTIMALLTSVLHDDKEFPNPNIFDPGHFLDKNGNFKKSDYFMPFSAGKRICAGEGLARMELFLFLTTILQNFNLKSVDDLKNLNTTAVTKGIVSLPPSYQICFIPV
Experimental: (§1) Eight cytochrome p450 enzyme inhibition reactions of human liver microsomes were performed using compound 77 of the present invention as a representative example.
(§2) The main reaction systems and processes: in 37° C. water bath, the test compounds (7 concentrations, 0, 0.25, 0.5, 5, 10, 25, and 50 uM; the final methanol concentration was 1% in the system), human liver microsomes (BD Gentest) (0.5 mg/mL) and reducing coenzyme II (Roche 10621706001) (1 mg/mL) and the corresponding cytochrome p450 enzyme probe substrate were co-incubated for 5 to 20 minutes. Among them, (1) the probe substrate for CYP1A2 was Phenacetin ([…]) (Sigma), and the selective inhibitor alpha-naphthoflavone (2 uM) (Sigma) was for parallel detection as positive control, and they were incubated for 20 minutes. (2) The probe substrate for CYP2b6 was Bupropion (40 uM) (Sigma) and the selective inhibitor Ticlopidine (10 uM) (Sigma) was for parallel detection as positive control, and they were incubated for 20 minutes. (3) The probe substrate of CYP2C8 was Amodiaquine (1 uM) (Sigma), and the selective inhibitor Montelukast (10 uM) (Sigma) was for parallel detection as positive control, and they were incubated for 20 minutes. (4) The probe substrate for CYP2C9 was Diclofenac (2.5 uM) (Sigma), and the selective inhibitor Sulphaphenazole (10 uM) (Sigma) was for parallel detection as positive control, and they were incubated for 20 minutes. (5) The probe substrate for CYP2C19 was Mephenytoin (40 uM) (Sigma), and the selective inhibitor Ticlopidine (10 uM) (Sigma) was for parallel detection as positive control, and they were incubated for 20 minutes. (6) The probe substrate for CYP2D6 was Dextromethorphan (5 uM) (Sigma), and the selective inhibitor Quinidine (10 uM) (Sigma) was for parallel detection as positive control, and they were incubated for 20 minutes. (7) The probe substrates for CYP3A4-T and CYP3A4-M were Testosterone (5 uM) (Sigma) and Midazolam (5 uM) (Sigma), respectively, and the selective inhibitor was Ketoconazole (1 uM) (Sigma), they were detected in parallel as positive control, and incubated for 5 minutes. The reaction system was quenched by adding methanol containing the corresponding internal standard. The internal standard compound was Tolbutamide (Sigma). The concentration of the corresponding metabolites was determined by LC/MS/MS. For the data analysis, the decrease in peak area of the metabolite of the sample after addition of compound 77 relative to the peak area of the metabolite of the solvent control sample was used to calculate the IC50 (concentration of the test substance at 50% inhibition). The percentages of peak areas of metabolites of CYP1A2, CYP2B6, CYP2C8, CYP2C9, 15CYP2C19, CYP2D6, CYP3A4-T, and CYP3A4-M probe substrates after addition of different concentrations of compound 77 and selective inhibitors relative to the solvent control peak areas were shown in the Table 7.

CYP3A4-M = target: T2, CYP3A4-M (Homo sapiens, UniProt P08684); assay: P450 enzyme inhibition, CYP3A4-M (Midazolam); type: in vitro ADME; conditions: human liver microsomes
T2 construct: human liver microsomes (BD Gentest) (0.5 mg/mL); tissue BD Gentest; host or cells: human liver microsomes
Experimental: as §1, §2

T2 sequence (P08684 whole entry): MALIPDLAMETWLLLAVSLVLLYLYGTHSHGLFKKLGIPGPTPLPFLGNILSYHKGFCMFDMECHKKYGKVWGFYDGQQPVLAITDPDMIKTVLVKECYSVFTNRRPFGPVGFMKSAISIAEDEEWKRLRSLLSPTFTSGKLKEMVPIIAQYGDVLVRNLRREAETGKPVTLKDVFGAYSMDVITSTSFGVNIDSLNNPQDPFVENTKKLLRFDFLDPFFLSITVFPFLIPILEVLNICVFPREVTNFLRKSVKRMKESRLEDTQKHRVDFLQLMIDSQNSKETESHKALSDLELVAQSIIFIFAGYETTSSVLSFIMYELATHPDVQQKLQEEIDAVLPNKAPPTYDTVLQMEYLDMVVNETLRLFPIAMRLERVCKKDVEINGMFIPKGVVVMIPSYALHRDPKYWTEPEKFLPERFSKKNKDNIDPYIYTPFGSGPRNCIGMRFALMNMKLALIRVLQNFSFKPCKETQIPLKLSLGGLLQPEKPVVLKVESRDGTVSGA

COCCOc1ccc2c(c1)ncn2-c1ccc(NC(=O)Nc2cc(C(C)(C)C)n[nH]2)cc1 [Compound 77, 1-(5-tert-butyl-2H-pyrazol-3-yl)-3-{4-[5-(2-methoxyl-ethoxyl)-benzimidazol-1-yl]-phenyl}-urea]
CYP2C8 Remaining % (CYP2C8; Concentration 0.25 uM): 99.2% | CYP2C8 Remaining % (CYP2C8; Concentration 0.5 uM): 103.5% | CYP2C8 Remaining % (CYP2C8; Concentration 5 uM): 90.7% | CYP2C8 Remaining % (CYP2C8; Concentration 10 uM): 88.5% | CYP2C8 Remaining % (CYP2C8; Concentration 25 uM): 81.7% | CYP2C8 Remaining % (CYP2C8; Concentration 50 uM): 49.1% | IC50 (CYP2C8): ≥ 50 µM | CYP3A4M Remaining % (CYP3A4-M; Concentration 0.25 uM): 105.7% | CYP3A4M Remaining % (CYP3A4-M; Concentration 0.5 uM): 105.7% | CYP3A4M Remaining % (CYP3A4-M; Concentration 5 uM): 105.0% | CYP3A4M Remaining % (CYP3A4-M; Concentration 10 uM): 97.3% | CYP3A4M Remaining % (CYP3A4-M; Concentration 25 uM): 97.2% | CYP3A4M Remaining % (CYP3A4-M; Concentration 50 uM): 84.0% | inhibitory effect on CYP3A4-M (CYP3A4-M; Concentration 50 uM): no significant inhibitory effect
